Experimental data reported in patent publication US12522614B2, “Topical phosphoinositide 3-kinase inhibitors” (VENTHERA, INC., priority 2019, dated 2026).

Assays:
[1] = In vitro human skin permeation study of topical gel formulations (Franz diffusion cells); assay type: in vitro ADME
[2] = Stability study of Compound 1.002 as API (HPLC assay); assay type: physicochemical
Text: The stability of three lots of Compound 1.002 as Active Pharmaceutical Ingredient (API) was studied for a period of 12 months.

PI3K (p110a(E545K)/p85a) = target: T1, PI3K (p110a(E545K)/p85a) (Homo sapiens, UniProt P42336, E545K); assay: Lipid kinase inhibitory activity, ADP-Glo; assay type: biochemical; settings: α E545K
T1 construct: purchased Reaction Biology Corporation (RBC)
T1 sequence (P42336 whole entry E545K): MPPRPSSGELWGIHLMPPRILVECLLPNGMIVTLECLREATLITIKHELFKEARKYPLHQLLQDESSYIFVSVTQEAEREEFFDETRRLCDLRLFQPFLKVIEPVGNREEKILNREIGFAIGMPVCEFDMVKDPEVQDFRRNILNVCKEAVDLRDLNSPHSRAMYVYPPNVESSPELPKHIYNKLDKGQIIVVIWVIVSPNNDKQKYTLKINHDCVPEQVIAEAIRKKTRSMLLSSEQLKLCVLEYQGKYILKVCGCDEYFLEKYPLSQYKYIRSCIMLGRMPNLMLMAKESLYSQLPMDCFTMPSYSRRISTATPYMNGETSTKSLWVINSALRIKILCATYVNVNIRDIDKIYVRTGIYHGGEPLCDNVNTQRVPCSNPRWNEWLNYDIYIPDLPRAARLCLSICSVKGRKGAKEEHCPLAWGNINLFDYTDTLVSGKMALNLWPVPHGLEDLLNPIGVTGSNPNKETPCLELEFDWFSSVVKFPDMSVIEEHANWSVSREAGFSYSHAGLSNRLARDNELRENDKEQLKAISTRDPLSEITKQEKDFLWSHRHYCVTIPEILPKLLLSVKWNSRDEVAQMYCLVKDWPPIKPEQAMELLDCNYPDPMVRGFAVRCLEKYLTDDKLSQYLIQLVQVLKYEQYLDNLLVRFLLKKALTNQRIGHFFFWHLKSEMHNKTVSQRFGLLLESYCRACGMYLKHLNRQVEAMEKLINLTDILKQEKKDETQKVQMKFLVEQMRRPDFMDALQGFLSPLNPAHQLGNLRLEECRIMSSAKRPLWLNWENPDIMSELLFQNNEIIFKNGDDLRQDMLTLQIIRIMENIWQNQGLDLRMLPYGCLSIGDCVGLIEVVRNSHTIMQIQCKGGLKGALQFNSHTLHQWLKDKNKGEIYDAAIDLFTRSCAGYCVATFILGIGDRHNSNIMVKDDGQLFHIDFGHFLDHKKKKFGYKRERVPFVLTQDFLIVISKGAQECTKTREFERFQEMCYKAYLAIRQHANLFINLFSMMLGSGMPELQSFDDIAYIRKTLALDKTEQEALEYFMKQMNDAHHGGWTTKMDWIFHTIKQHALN
T1 sequence (P27986 whole entry partner): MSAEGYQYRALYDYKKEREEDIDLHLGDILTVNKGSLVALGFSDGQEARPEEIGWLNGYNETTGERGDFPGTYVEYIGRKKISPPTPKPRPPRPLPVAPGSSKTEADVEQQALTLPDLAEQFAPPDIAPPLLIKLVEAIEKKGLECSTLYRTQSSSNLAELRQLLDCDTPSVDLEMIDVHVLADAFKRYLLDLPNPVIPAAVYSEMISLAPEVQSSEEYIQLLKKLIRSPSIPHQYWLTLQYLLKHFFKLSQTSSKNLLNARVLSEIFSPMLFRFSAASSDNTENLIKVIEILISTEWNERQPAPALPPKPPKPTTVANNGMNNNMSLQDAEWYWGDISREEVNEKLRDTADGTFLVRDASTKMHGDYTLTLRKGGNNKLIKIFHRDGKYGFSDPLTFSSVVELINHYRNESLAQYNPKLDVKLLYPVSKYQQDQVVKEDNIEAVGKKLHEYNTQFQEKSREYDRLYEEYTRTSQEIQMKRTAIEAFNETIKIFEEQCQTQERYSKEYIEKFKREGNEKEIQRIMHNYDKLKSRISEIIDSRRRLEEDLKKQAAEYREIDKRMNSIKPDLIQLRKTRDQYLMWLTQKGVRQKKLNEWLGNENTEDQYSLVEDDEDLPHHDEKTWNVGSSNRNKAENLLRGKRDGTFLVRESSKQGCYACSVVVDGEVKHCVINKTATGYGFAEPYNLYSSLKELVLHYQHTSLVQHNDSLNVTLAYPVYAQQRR
Experimental: (§1) Lipid kinases: Lipid kinases from Reaction Biology Corporation (RBC) in ADP-Glo format were used.
(§2) Assay Description: The kinase reactions utilized ATP and produced ADP as a byproduct. The ADP production was quantified by ADP-Glo luminescence detection. This assay was a 3-step reaction. First, the kinase reaction with lipid substrate was carried out in the presence of ATP, and the reaction was quenched and depleted remaining ATP with ADP-Glo™ reagent, and then finally ADP was converted to ATP which was measured using a luciferase/luciferin reaction.
(§3) Assay Procedure: The assay was performed according to the steps as follows: • 1. Preparing substrate in freshly prepared reaction buffer; • 2. Delivering kinase into the substrate solution and gently mixing; • 3. Delivering compounds in […] into the kinase reaction mixture by Acoustic technology (Echo550; nanoliter range), incubating for 20 minutes at room temperature; • 4. Delivering ATP into the reaction mixture to initiate the reaction; • 5. Incubating for 30 minutes at 30° C.; • 6. Quenching the reaction with ADP-Glo reagent and incubating for 40 minutes; • 7. Adding Detection Mixture and incubating for 30 minutes; and • 8. Measuring luminescence.
(§4) Data Analysis: The luminescence was converted into μM ADP production based on ADP standard curves. The nonlinear regression to obtain the standard curve and IC50 values were performed using Graphpad Prism software.

PI3Ka (p110a/p85a) = target: T2, PI3Ka (p110a/p85a) (Homo sapiens, UniProt P42336); assay: Lipid kinase inhibitory activity, ADP-Glo; assay type: biochemical; settings: α
T2 construct: purchased Reaction Biology Corporation (RBC)
T2 sequence (P42336 whole entry): as the sequence (P42336 whole entry E545K) above, with K545E counted along it
T2 sequence (P27986 whole entry partner): as the sequence (P27986 whole entry partner) above
Experimental: as §1, §2, §3, §4

PI3Kd (p110d/p85a) = target: T3, PI3Kd (p110d/p85a) (Homo sapiens, UniProt O00329); assay: Lipid kinase inhibitory activity, ADP-Glo; assay type: biochemical; settings: δ
T3 construct: purchased Reaction Biology Corporation (RBC)
T3 sequence (O00329 whole entry): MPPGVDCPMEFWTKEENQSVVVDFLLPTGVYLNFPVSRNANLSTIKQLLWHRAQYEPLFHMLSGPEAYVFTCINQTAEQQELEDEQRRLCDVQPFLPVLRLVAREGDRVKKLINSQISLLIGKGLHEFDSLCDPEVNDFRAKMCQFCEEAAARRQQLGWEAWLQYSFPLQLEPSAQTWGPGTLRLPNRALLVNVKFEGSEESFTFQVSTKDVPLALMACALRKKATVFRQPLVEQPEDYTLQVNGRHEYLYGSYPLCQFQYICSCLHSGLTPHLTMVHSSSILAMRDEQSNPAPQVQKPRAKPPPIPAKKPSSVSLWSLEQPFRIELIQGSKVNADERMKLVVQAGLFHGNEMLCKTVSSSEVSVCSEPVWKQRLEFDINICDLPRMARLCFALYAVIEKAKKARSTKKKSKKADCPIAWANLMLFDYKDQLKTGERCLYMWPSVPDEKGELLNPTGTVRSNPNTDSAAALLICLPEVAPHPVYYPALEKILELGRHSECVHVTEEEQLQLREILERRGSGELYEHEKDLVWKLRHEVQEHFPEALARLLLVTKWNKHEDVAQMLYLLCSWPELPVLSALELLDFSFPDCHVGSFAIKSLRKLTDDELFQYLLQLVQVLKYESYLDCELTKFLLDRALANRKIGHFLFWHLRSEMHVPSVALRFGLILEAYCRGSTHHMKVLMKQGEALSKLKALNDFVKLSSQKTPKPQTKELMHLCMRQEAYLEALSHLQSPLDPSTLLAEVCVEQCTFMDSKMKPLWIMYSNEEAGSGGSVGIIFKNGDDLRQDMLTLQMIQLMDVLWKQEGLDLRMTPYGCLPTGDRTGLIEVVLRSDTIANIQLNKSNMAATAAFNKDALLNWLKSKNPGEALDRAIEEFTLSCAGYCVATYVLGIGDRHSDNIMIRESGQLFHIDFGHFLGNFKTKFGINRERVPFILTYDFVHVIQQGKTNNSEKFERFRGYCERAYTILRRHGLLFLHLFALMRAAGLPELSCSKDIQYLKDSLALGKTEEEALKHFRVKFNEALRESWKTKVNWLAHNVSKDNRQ
T3 sequence (P27986 whole entry partner): as the sequence (P27986 whole entry partner) above
Experimental: as §1, §2, §3, §4

PI3Kg (p110g) = target: T4, PI3Kg (p110g) (Homo sapiens, UniProt P48736); assay: Lipid kinase inhibitory activity, ADP-Glo; assay type: biochemical; settings: γ
T4 construct: purchased Reaction Biology Corporation (RBC)
T4 sequence (P48736 whole entry): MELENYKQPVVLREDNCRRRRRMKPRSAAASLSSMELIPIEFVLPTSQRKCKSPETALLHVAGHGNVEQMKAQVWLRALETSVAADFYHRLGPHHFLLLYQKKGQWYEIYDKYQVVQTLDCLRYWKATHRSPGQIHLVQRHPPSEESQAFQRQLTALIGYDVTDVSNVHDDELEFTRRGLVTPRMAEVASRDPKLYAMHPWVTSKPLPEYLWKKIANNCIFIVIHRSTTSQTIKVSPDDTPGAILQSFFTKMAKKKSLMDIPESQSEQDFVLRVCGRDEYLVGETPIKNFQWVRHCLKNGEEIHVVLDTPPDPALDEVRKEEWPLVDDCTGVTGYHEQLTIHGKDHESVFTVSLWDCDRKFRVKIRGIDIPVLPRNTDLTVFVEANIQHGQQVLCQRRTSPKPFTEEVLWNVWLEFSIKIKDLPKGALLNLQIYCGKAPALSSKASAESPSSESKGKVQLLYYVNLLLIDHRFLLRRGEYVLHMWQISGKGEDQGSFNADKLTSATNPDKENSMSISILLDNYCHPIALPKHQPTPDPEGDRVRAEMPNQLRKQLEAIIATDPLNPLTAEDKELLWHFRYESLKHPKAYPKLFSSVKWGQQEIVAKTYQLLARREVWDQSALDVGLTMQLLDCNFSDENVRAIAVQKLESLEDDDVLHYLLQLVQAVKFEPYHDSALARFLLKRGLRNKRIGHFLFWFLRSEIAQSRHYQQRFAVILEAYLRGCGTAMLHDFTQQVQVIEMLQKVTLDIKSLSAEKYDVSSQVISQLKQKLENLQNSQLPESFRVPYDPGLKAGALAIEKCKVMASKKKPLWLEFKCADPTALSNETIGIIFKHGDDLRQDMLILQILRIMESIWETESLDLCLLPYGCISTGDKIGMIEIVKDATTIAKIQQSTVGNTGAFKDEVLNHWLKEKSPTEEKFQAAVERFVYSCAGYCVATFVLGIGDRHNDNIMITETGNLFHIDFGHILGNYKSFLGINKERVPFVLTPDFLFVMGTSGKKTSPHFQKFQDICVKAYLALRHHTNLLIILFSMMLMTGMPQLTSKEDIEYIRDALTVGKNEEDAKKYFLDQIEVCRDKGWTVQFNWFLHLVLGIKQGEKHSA
Experimental: as §1, §2, §3, §4

[3] = target: T5, PI3K (p110a(H1047R)/p85a) (Homo sapiens, UniProt P42336, H1047R); assay: Lipid kinase inhibitory activity, ADP-Glo; assay type: biochemical; settings: α H1047R
T5 construct: purchased Reaction Biology Corporation (RBC)
T5 sequence (P42336 whole entry H1047R): as the sequence (P42336 whole entry E545K) above, with K545E, H1047R counted along it
T5 sequence (P27986 whole entry partner): as the sequence (P27986 whole entry partner) above
Experimental: as §1, §2, §3, §4

PI3K (p110a(E542K)/p85a) = target: T6, PI3K (p110a(E542K)/p85a) (Homo sapiens, UniProt P42336, E542K); assay: Lipid kinase inhibitory activity, ADP-Glo; assay type: biochemical; settings: α E542K
T6 construct: purchased Reaction Biology Corporation (RBC)
T6 sequence (P42336 whole entry E542K): as the sequence (P42336 whole entry E545K) above, with E542K, K545E counted along it
T6 sequence (P27986 whole entry partner): as the sequence (P27986 whole entry partner) above
Experimental: as §1, §2, §3, §4

MTOR/FRAP1 = target: T7, MTOR/FRAP1 (Homo sapiens, UniProt P42345); assay: Lipid kinase inhibitory activity, ADP-Glo; assay type: biochemical
T7 construct: purchased Reaction Biology Corporation (RBC)
Experimental: as §1, §2, §3, §4

PI3Kb (p110b/p85a) = target: T8, PI3Kb (p110b/p85a) (Homo sapiens, UniProt P42338); assay: Lipid kinase inhibitory activity, ADP-Glo; assay type: biochemical; settings: β
T8 construct: purchased Reaction Biology Corporation (RBC)
Experimental: as §1, §2, §3, §4

[4] = In vitro skin permeation study, mouse skin vs. human skin; assay type: in vitro ADME; settings: Example 8 gel
Experimental: The gel formulation of Example 8 was used to determine the skin permeation through human and mouse skin. It is important to understand the permeation difference between the two types of skin, because mouse skin is used extensively in toxicology studies as well as in early in vivo studies. The skin permeation study was performed in accordance with the method as described in Example 9.

[5] = Study-1, Example 8 gel, human skin, Donor 1, 2 h
[6] = Study-1, Example 8 gel, human skin, Donor 1, 4 h
[7] = Study-1, Example 8 gel, human skin, Donor 1, 8 h
[8] = Study-1, Example 8 gel, human skin, Donor 1, 24 h
[9] = Study-1, Example 8 gel, human skin, Donor 1, 48 h
[10] = Study-1, Example 8 gel, human skin, Donor 2, 2 h
[11] = Study-1, Example 8 gel, human skin, Donor 2, 8 h
[12] = Study-1, Example 8 gel, human skin, Donor 2, 24 h
[13] = Study-1, Example 8 gel, human skin, Donor 2, 48 h
[14] = Study-1, Example 8 gel, human skin, Donor 3, 4 h
[15] = Study-1, Example 8 gel, human skin, Donor 3, 8 h
[16] = Study-1, Example 8 gel, human skin, Donor 3, 24 h
[17] = Study-1, Example 8 gel, human skin, Donor 3, 48 h
[18] = Study-2, gel saturated at 120 mg/mL, human skin, 2 h
[19] = Study-2, gel saturated at 120 mg/mL, human skin, 4 h
[20] = Study-2, gel saturated at 120 mg/mL, human skin, 8 h
[21] = Study-2, gel saturated at 120 mg/mL, human skin, 24 h
[22] = Study-2, gel saturated at 120 mg/mL, human skin, 48 h

Compound: CC(=O)Oc1cccc(-c2nc(N3CCOCC3)c3sccc3n2)c1 [Compound 1.002, 3-(4-Morpholinothieno[3,2-d]pyrimidin-2-yl)phenyl Acetate]
- Effect of oleic acid amount on flux through human skin ([1]; Example 15, gels with 1%, 2%, 5% and 10% oleic acid, FIG. 13): increases as the increase of the amount of oleic acid
- Metabolism of Compound 1.002 to MTPP ([1]; Example 15, gels with 1%, 2%, 5% and 10% oleic acid, human skin): Majority of Compound 1.002 metabolized to MTPP
- Share of total permeated (MTPP+Compound 1.002) that was Compound 1.002 ([1]; Example 16, three formulations, 24 hour time point): about 10%
- Cumulative permeation, Cmpd. 1.002 [1, 5]: 0.00 μg/cm^2
- Hydrolysis of Cmpd. 1.002 to MTPP [1, 5]: 100%
- Cumulative permeation, Cmpd. 1.002 [1, 6]: 0.00 μg/cm^2
- Hydrolysis of Cmpd. 1.002 to MTPP [1, 6]: 100%
- Cumulative permeation, Cmpd. 1.002 [1, 7]: 0.00 μg/cm^2
- Hydrolysis of Cmpd. 1.002 to MTPP [1, 7]: 100%
- Cumulative permeation, Cmpd. 1.002 [1, 8]: 13.47 μg/cm^2
- Hydrolysis of Cmpd. 1.002 to MTPP [1, 8]: 82.9%
- Cumulative permeation, Cmpd. 1.002 [1, 9]: 85.01 μg/cm^2
- Hydrolysis of Cmpd. 1.002 to MTPP [1, 9]: 58.5%
- Cumulative permeation, Cmpd. 1.002 [1, 10]: 0.00 μg/cm^2
- Hydrolysis of Cmpd. 1.002 to MTPP [1, 10]: 100%
- Cumulative permeation, Cmpd. 1.002 ([1]; Study-1, Example 8 gel, human skin, Donor 2, 4 h): 0.00 μg/cm^2
- Cumulative permeation, Cmpd. 1.002 [1, 11]: 1.09 μg/cm^2
- Hydrolysis of Cmpd. 1.002 to MTPP [1, 11]: 87.0%
- Cumulative permeation, Cmpd. 1.002 [1, 12]: 15.44 μg/cm^2
- Hydrolysis of Cmpd. 1.002 to MTPP [1, 12]: 83.6%
- Cumulative permeation, Cmpd. 1.002 [1, 13]: 82.83 μg/cm^2
- Hydrolysis of Cmpd. 1.002 to MTPP [1, 13]: 59.6%
- Cumulative permeation, Cmpd. 1.002 [1, 14]: 0.00 μg/cm^2
- Hydrolysis of Cmpd. 1.002 to MTPP [1, 14]: 100%
- Cumulative permeation, Cmpd. 1.002 [1, 15]: 0.00 μg/cm^2
- Hydrolysis of Cmpd. 1.002 to MTPP [1, 15]: 100%
- Cumulative permeation, Cmpd. 1.002 [1, 16]: 5.18 μg/cm^2
- Hydrolysis of Cmpd. 1.002 to MTPP [1, 16]: 92.0%
- Cumulative permeation, Cmpd. 1.002 [1, 17]: 70.87 μg/cm^2
- Hydrolysis of Cmpd. 1.002 to MTPP [1, 17]: 65.5%
- Amount of permeated Compound 1.002 metabolized to MTPP ([1]; Study-1 and Study-2, human skin, first 24-hour period): 82%-100%
- Cumulative permeation, Cmpd. 1.002 [1, 18]: 0.00 μg/cm^2
- Hydrolysis of Cmpd. 1.002 to MTPP [1, 18]: 100%
- Cumulative permeation, Cmpd. 1.002 [1, 19]: 0.00 μg/cm^2
- Hydrolysis of Cmpd. 1.002 to MTPP [1, 19]: 100%
- Cumulative permeation, Cmpd. 1.002 [1, 20]: 0.00 μg/cm^2
- Hydrolysis of Cmpd. 1.002 to MTPP [1, 20]: 100%
- Cumulative permeation, Cmpd. 1.002 [1, 21]: 0.00 μg/cm^2
- Hydrolysis of Cmpd. 1.002 to MTPP [1, 21]: 100%
- Cumulative permeation, Cmpd. 1.002 [1, 22]: 78.10 μg/cm^2
- Hydrolysis of Cmpd. 1.002 to MTPP [1, 22]: 83.9%
- Permeation through human skin relative to MTPP ([1]; Study-3, saturated gel formulations, 48 hour period, FIG. 4): about 6 times
- Compound 1.002 Purity by a HPLC Assay Method ([2]; Lot-1, 25° C./60% RH, 0 months): 99.5%
- Compound 1.002 Purity by a HPLC Assay Method ([2]; Lot-1, 25° C./60% RH, 3 months): 99.4%
- Compound 1.002 Purity by a HPLC Assay Method ([2]; Lot-1, 25° C./60% RH, 6 months): 99.6%
- Compound 1.002 Purity by a HPLC Assay Method ([2]; Lot-1, 25° C./60% RH, 9 months): 99.8%
- Compound 1.002 Purity by a HPLC Assay Method ([2]; Lot-1, 25° C./60% RH, 12 months): 99.9%
- Compound 1.002 Purity by a HPLC Assay Method ([2]; Lot-1, 40° C./75% RH, 0 months): 99.5%
- Compound 1.002 Purity by a HPLC Assay Method ([2]; Lot-1, 40° C./75% RH, 3 months): 99.2%
- Compound 1.002 Purity by a HPLC Assay Method ([2]; Lot-1, 40° C./75% RH, 6 months): 99.5%
- Compound 1.002 Purity by a HPLC Assay Method ([2]; Lot-2, 40° C./75% RH, 0 months): 99.4%
- Compound 1.002 Purity by a HPLC Assay Method ([2]; Lot-2, 40° C./75% RH, 1 month): 100.0%
- Compound 1.002 Purity by a HPLC Assay Method ([2]; Lot-2, 40° C./75% RH, 2 months): 99.3%
- Compound 1.002 Purity by a HPLC Assay Method ([2]; Lot-2, 40° C./75% RH, 3 months): 97.9%
- Compound 1.002 Purity by a HPLC Assay Method ([2]; Lot-2, 40° C./75% RH, 6 months): 100.0%
- Compound 1.002 Purity by a HPLC Assay Method ([2]; Lot-3, 40° C./75% RH, 0 months): 100.0%
- Compound 1.002 Purity by a HPLC Assay Method ([2]; Lot-3, 40° C./75% RH, 1 month): 100.0%
- Compound 1.002 Purity by a HPLC Assay Method ([2]; Lot-3, 40° C./75% RH, 2 months): 100.0%
- Compound 1.002 Purity by a HPLC Assay Method ([2]; Lot-3, 40° C./75% RH, 3 months): 98.9%
- Compound 1.002 Purity by a HPLC Assay Method ([2]; Lot-3, 40° C./75% RH, 6 months): 100.0%
- IC50 (PI3K (p110a(E545K)/p85a)): 49 nM
- IC50 (PI3Ka (p110a/p85a)): 35 nM
- IC50 (PI3Kd (p110d/p85a)): 83 nM
- IC50 (PI3Kg (p110g)): 544 nM
- IC50 [3]: 59 nM
- IC50 (PI3K (p110a(E542K)/p85a)): 42 nM
- IC50 (MTOR/FRAP1): 1410 nM
- IC50 (PI3Kb (p110b/p85a)): 257 nM
- Permeation through mouse skin compared with human skin ([4]; 48 hours, FIG. 5): approximately three times higher
- Metabolism of Compound 1.002 to MTPP in human and mouse skin ([4]; both skin types): proceeded equally well
